One experiment relates to tRNA. The experiment can be described thus: Photobinding to RNA. It is filed as binding. The note with it: 100 µg/ml, irradiated 30 minutes; 1-10 µg treated tRNA spotted; no signal from unirradiated controls. As for the experimental part:
This example describes photobinding of ^3H-AMIP, ^3H-AMDMIP and BIOMIP to RNA. A tRNA stock was prepared at a concentration of 765 µg/ml in 1 x TE / 10 mM NaCl. Appropriate amounts of each compound were prepared in separate reaction vessels such that upon addition of 200 µl of the tRNA solution (153 µg) the final concentration of each compound was 100 µg/ml. ^3H-AMIP and […] in the experiment; the BIOMIP used was unlabelled. Each reaction vessel was then irradiated for 30 minutes at 25 °C in the CE-III device. Identical unirradiated reaction mixtures were used as controls for each compound. Following irradiation, each mixture was extracted with CHCl3 (4 x 200 µl) then precipitated (X2). The pellets were resuspended in 1 x TE and the binding levels determined as follows. For the two labelled compounds (^3H-AMDMIP and ^3H-AMIP), the nucleic acid concentration was determined optically and radioactivity measured by scintillation counting of aliquots of the stock solutions. Binding of the compounds was then calculated to be as follows:
To determine if binding of BIOMIP to tRNA has occurred, it was necessary to use a non-radioactive format which detected the biotin moiety on the compound. A commercial kit ("BluGene"; BRL) was used for this purpose. The kit instructions were followed for detection of both the control DNA (supplied with the kit) and BIOMIP treated tRNA. […]

The subject of the next experiment is PCR'd MACS 1555. Kind of experiment: Inhibition of PCR by non-psoralen compounds in the absence of light. It is filed as biochemical. Conditions: 30 cycles. The text has this:
The compounds tested were the following: 1) ethidium bromide (a Phenanthridine, see Table 1), 2) xylene cylanol (an Organic Dye, see Table 1), 3) bromphenol blue (an Organic Dye, see Table 1), 4) coumarin and 5) methylene blue (a Phenazathionium Salt, see Table 1).
A separate experiment examined PCR inhibition with coumarin and methylene blue in the absence of light. The following concentrations of methylene blue were tried: 4.3 x 10^-2, 4.3 x 10^-3, 4.3 x 10^-4 and 4.3 x 10^-5 M. Concentrations of coumarin tried included: 7 x 10^-3, 7 x 10^-4, 7 x 10^-5 and 7 x 10^-6 M. Compound was added to PCR tube containing α-^32P-dCTP and target (1 µl […].; PCR'd MACS 1555 per assay-point). PCR was carried out for 30 x cycles. Samples were loaded onto a 12% / 8 M urea gel.

On to “5-N-[N,N'-Dimethyl-(6-[biotinamido]-hexanoate) -1,6-hexanediamine])-methyl-isopsoralen [BIOMIP]”, for which the “binding to tRNA detected via biotin moiety (BluGene kit)” value in the experiment on tRNA is given as “covalently bound to the tRNA”.
In the case of `O=c1ccc2ccccc2o1` [Coumarin, coumarin], in the experiment on PCR'd MACS 1555, the “inhibition of PCR in the absence of light” value is “did not inhibit PCR at any of the concentrations tested”.

The values are drawn from patent EP0497921B1, “METHOD FOR INHIBITING ENZYMATIC SYNTHESIS OF NUCLEIC ACIDS USING ISOPSORALENS” (ISAACS, Stephen T., priority 1989, dated 1991).
